{
  "source": "patent US10624875B2",
  "about": "“Methods and compositions for treating schizophrenia” (The Johns Hopkins University, priority 2012, dated 2020)",
  "key": {"aMCI subjects": {"system": "aMCI subjects", "assay": "Verbal Paired Associates Test - Delayed Recall", "assay_type": "in vivo, human", "details": "125 mg twice a day for two weeks", "protocol": "A within-subjects trial of 8 weeks duration, involving 17 amnestic MCI (aMCI) subjects and 17 age-matched controls with a low dose treatment of levetiracetam is conducted. During the course of the study, each aMCI subject receives both drug and placebo treatments separately in two periods of two weeks each, with the order of treatments among different aMCI subjects counterbalanced (see FIG. 7). Age-matched control subjects treated with placebo serve as a further control. Cognitive testing and fMRI imaging data are obtained from the subjects after each two week period of drug/placebo treatment.\nAll participants undergo neuropsychological evaluation at the time of assessment for treatment efficacy (Visits 1 and 2), as well as at the Baseline Visit. […]\nAs described above, the drug treatment period is the two weeks preceding Visit 1 or 2 (with the two week period preceding the other Visit being the placebo phase). For the subjects receiving the drug treatment, half a scored 250 mg tablet of levetiracetam is used to achieve a dose of […], which is approximately 3.6 mg/kg/day (assuming an average adult human weight of 70 kg)."}, "DG/CA3": {"system": "DG/CA3", "assay": "fMRI activity during explicit 3-alternative forced choice task, DG/CA3", "assay_type": "in vivo, human", "details": "aMCI subjects, 125 mg twice a day for two weeks, versus placebo", "protocol": "A within-subjects trial of 8 weeks duration, involving 17 amnestic MCI (aMCI) subjects and 17 age-matched controls with a low dose treatment of levetiracetam is conducted. During the course of the study, each aMCI subject receives both drug and placebo treatments separately in two periods of two weeks each, with the order of treatments among different aMCI subjects counterbalanced (see FIG. 7). Age-matched control subjects treated with placebo serve as a further control. Cognitive testing and fMRI imaging data are obtained from the subjects after each two week period of drug/placebo treatment. As described above, the drug treatment period is the two weeks preceding Visit 1 or 2 (with the two week period preceding the other Visit being the placebo phase). […] Imaging data are obtained through high-resolution methods developed in the Stark laboratory. Data are collected on a Phillips 3 Tesla scanner (Eindhoven, The Netherlands) equipped with an 8-channel SENSE (Sensitivity Encoding) head coil, located at the F.M. Kirby Research Center for Functional Brain Imaging at the Kennedy Krieger Institute (Baltimore, Md.). […] Group data are analyzed using a two-way Analysis of Variance (ANOVA) with trial types and group as fixed factors, and subject as a random factor nested within group. […]"}},
  "data": [
    {"compound": "CC[C@@H](C(N)=O)N1CCCC1=O", "note": "[levetiracetam, (2S)-2-(2-oxopyrrolidin-1-yl) butanamide]", "values": [
      {"measurement": "performance in Verbal Paired Associates Test - Delayed Recall", "setting": "aMCI subjects", "value": "fail to rescue performance"},
      {"measurement": "DG/CA3 activity during lure stimuli correctly identified as similar", "setting": "DG/CA3", "value": "reduces DG/CA3 hyper-activity"}
    ]}
  ]
}
